# Measurements published in patent US12152038B2, “Vasopressin receptor antagonists and products and methods related thereto” (Neumora Therapeutics, Inc., priority 2017, dated 2024).
# What was measured:
# [1] = biological target: T1, human Oxytocin Receptor (hOTR) (Homo sapiens, UniProt P30559); assay: Oxytocin receptor (OTR) antagonist assay (FLIPR calcium, CHEM-1-hOTR cells); format: cell-based
# T1 construct: host or cells: CHEM-1 (ready-to-assay frozen cells)
# T1 sequence (P30559 1-389): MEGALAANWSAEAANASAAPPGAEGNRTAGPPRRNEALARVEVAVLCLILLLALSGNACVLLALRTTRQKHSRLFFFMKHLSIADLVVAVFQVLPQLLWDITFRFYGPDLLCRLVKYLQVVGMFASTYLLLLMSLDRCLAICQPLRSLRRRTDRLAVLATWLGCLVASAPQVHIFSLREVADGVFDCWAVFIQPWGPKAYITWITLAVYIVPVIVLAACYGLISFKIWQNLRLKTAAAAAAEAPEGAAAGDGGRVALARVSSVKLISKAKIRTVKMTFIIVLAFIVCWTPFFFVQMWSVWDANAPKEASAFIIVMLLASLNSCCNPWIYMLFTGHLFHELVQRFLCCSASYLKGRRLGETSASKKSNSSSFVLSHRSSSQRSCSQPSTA
# Method: This assay was performed in CHEM-1 cells expressing the human Oxytocin Receptor (hOTR) to determine the inhibitory effect of the compounds of the invention on the human Oxytocin receptor. Oxytocin evokes an increase in intracellular calcium in CHEM-1-hOTR cells which is measured in a fluorescence assay on the FLIPR^TETRA using calcium sensitive dyes. Test compounds were assessed for their ability to affect the magnitude of the response to oxytocin, with antagonists showing a concentration-dependent reduction in the oxytocin-mediated fluorescence.
# CHEM-1-hOTR ready was used to assay frozen cells (Eurofins #HTS09ORTA) which are supplied with a proprietary Media Component.
# Day 1 of the assay: Cells were thawed in a 37° C. water bath and diluted with the supplied Media Component to a final volume of 10 ml. The cell suspension was centrifuged at 1000 rpm for 3 min at room temperature and the supernatant was discarded. The cell pellet was resuspended in Media Component (10.5 ml) and the cells (25 μL) were dispensed into a poly-D-lysine coated black, clear bottomed, 384-well plate. The plates were incubated overnight at 37° C., 5% CO2.
# Day 2: At the start of each assay day the potency of oxytocin was assessed and an EC80 concentration was determined for subsequent compound profiling. Assays were performed using a two-step addition protocol on the FLIPR^TETRA; first addition of 5 μl of control or test compound at 10× final in assay buffer with 15 min incubation at 37° C., 5% CO2 followed by 10 μl of oxytocin at 6× final concentration in assay buffer. Changes in fluorescence were monitored for 3 min after both additions on the FLIPR^TETRA using 470-495 nm excitation and 515-575 nm emission wavelengths. The assay buffer consisted of HBSS (+Ca/+Mg) supplemented with 20 mM HEPES, and for the preparation of the oxytocin agonist only, 0.1% w/v bovine serum albumin. The assay was initiated by the removal of growth media from the cells and replaced with 45 μl of Calcium-6 dye (Molecular Devices) prepared at 1× in assay buffer. Cells were loaded with dye for 60-90 min at 37° C., 5% CO2 before initiation of the FLIPR^TETRA protocol. […] For compound profiling, test compounds were first serially diluted in DMSO (10-point curve, 1:3 dilutions) then diluted 33.3-fold in assay buffer prior to addition to the dye loaded cells on the FLIPR^TETRA. At the end of the incubation period 10 μl of oxytocin in assay buffer containing 0.1% BSA was added at the previously determined EC80 concentration.
# In-plate controls for the assay included a L-368,899 concentration-response curve as the reference OTR antagonist and an oxytocin concentration-response curve to confirm the reproducibility of the EC80 used for the compound challenge.
# [2] = biological target: T2, human Arginine Vasopressin Receptor 1a (AVPR1a) (Homo sapiens, UniProt P37288); assay: Vasopressin V1a receptor antagonist assay (FLIPR calcium, CHO-AVPR1a cells); format: cell-based
# T2 construct: expressed in transfected cells; host or cells: CHO (CHO-AVPR1a, kept under G418 selection)
# Method in brief: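 CHO cells expressing human AVPR1a were loaded with Calcium-6 dye and preincubated with compound for 15 min at 37° C. Cells were then challenged with AVP at its daily-determined EC80, and FLIPR fluorescence was read. Compounds were tested in duplicate as 10-point 1:3 dilutions from a top final concentration of 3 μM.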
# T2 sequence (P37288 whole entry): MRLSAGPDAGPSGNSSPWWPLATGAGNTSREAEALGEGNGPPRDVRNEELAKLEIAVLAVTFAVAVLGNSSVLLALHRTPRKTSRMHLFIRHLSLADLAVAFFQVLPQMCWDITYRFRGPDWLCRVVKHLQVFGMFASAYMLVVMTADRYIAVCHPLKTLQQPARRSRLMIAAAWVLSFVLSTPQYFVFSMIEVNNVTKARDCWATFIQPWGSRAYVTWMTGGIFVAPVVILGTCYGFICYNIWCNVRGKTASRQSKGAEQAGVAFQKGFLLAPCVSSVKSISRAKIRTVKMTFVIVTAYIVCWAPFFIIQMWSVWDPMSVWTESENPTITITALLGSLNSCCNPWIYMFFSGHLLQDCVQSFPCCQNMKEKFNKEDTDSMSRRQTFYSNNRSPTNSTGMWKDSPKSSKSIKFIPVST
IC50 [1] [nM],IC50 [2] [nM],SMILES
500 to 1000,< 100,"Cc1ccnc(N2CC3(CN(C(=O)N4c5ccc(F)cc5OCC4C)C3)C2)c1 (single isomer, unassigned) [20-4-B]"
100 to 500,< 100,"Cc1cnc(N2CC3(CN(C(=O)N4c5ccc(Cl)cc5OCC4C)C3)C2)cn1 (single isomer, unassigned) [20-5-B]"
< 100,< 100,"CC1COc2cc(Cl)ccc2N1C(=O)N1CC2(C1)CN(c1cc(C#N)ccn1)C2 (single isomer, unassigned) [20-6-B]"
100 to 500,< 100,"Cc1nc(N2CC3(CN(C(=O)N4c5ccc(Cl)cc5OCC4C)C3)C2)ncc1F (single isomer, unassigned) [20-7-B]"
100 to 500,< 100,"COc1ccnc(N2CC3(CN(C(=O)N4c5ccc(Cl)cc5OCC4C)C3)C2)c1 (single isomer, unassigned) [20-8-B]"
500 to 1000,< 100,"COc1ccnc(N2CC3(CN(C(=O)N4c5ccc(Cl)cc5OCC4C)C3)C2)n1 (single isomer, unassigned) [20-9-B]"
100 to 500,< 100,"Cc1nccnc1N1CC2(CN(C(=O)N3c4ccc(Cl)cc4OCC3C)C2)C1 (single isomer, unassigned) [20-10-A]"
< 100,< 100,"Cc1ccnc(N2CC3(CN(C(=O)N4c5ccc(Cl)cc5OCC4C)C3)C2)n1 (single isomer, unassigned) [20-12-B]"
≥ 1000,< 100,O=C(N1CC2(C1)CN(c1cccc(F)n1)C2)N1CCc2cc(Cl)ccc21 [1-78]
≥ 1000,< 100,O=C(N1CC2(C1)CN(c1ccc(F)cn1)C2)N1CCOCc2cc(Cl)ccc21 [8-4]
500 to 1000,< 100,O=C(N1CC2(C1)CN(c1ccccn1)C2)N1CCOCc2cc(Cl)ccc21 [8-12]
≥ 1000,< 100,O=C(N1CC2(C1)CN(c1cnccn1)C2)N1CCOCc2cc(Cl)ccc21 [8-13]
< 100,< 100,CC1Cc2cc(Cl)ccc2N1C(=O)N1CC2(C1)CN(c1ccc(F)cn1)C2 (stereo not shown) [8-16]
100 to 500,< 100,"CC1COc2cc(Cl)ccc2N1C(=O)N1CC2(C1)CN(c1cccnn1)C2 (stereo not shown) [9-1, (7-chloro-3-methyl-2,3-dihydro-4H-benzo[b][1,4]oxazin-4-yl)(6-(pyridazin-3-yl)-2,6-diazaspiro[3.3]heptan-2-yl)methanone]"
500 to 1000,< 100,CC1CN(C(=O)N2CC3(C2)CN(c2ccc(F)cn2)C3)c2ccc(Cl)cc2O1 (stereo not shown) [9-3]
≥ 1000,< 100,O=C(N1CC2(C1)CN(c1ccc(F)cn1)C2)N1CCOc2cc(Cl)ccc21 [9-7]
< 100,< 100,"CCC1COc2cc(Cl)ccc2N1C(=O)N1CC2(C1)CN(c1ccccn1)C2 (stereo not shown) [11-1, (7-chloro-3-ethyl-2,3-dihydro-4H-benzo[b][1,4]oxazin-4-yl)(6-(pyridin-2-yl)-2,6-diazaspiro[3.3]heptan-2-yl)methanone]"
500 to 1000,< 100,"CC1COc2cc(F)ccc2N1C(=O)N1CC2(C1)CN(c1ccc(F)cn1)C2 (stereo not shown) [12-1, (7-fluoro-3-methyl-2,3-dihydro-4H-benzo[b][1,4]oxazin-4-yl)(6-(5-fluoropyridin-2-yl)-2,6-diazaspiro[3.3]heptan-2-yl)methanone]"

IC50 [1] [nM],IC50 [2] [nM],SMILES
≥ 1000,< 100,"O=C(N1CC2(C1)CN(c1ccc(F)cn1)C2)N1CCC(O)c2cc(Cl)ccc21 (stereo not shown) [13-1, (6-chloro-4-hydroxy-3,4-dihydroquinolin-1(2H)-yl)(6-(5-fluoropyridin-2-yl)-2,6-diazaspiro[3.3]heptan-2-yl)methanone]"
≥ 1000,< 100,O=C(N1CC2(C1)CN(c1cnccn1)C2)N1CCC(O)c2cc(Cl)ccc21 (stereo not shown) [13-3]
≥ 1000,< 100,"O=C(N1CC2(C1)CN(c1ccc(F)cn1)C2)N1CCC(F)c2cc(Cl)ccc21 (stereo not shown) [14-1, (6-chloro-4-fluoro-3,4-dihydroquinolin-1(2H)-yl)(6-(5-fluoropyridin-2-yl)-2,6-diazaspiro[3.3]heptan-2-yl)methanone]"
≥ 1000,< 100,CC1COc2cc(Cl)ccc2N1C(=O)N1CC2(C1)CN(c1noc3cccnc13)C2 (stereo not shown) [18-3]
500 to 1000,< 100,CC1COc2cc(Cl)c(F)cc2N1C(=O)N1CC2(C1)CN(c1ncccn1)C2 (stereo not shown) [19-2]
100 to 500,< 100,CC1COc2cc(Cl)c(F)cc2N1C(=O)N1CC2(C1)CN(c1cccnn1)C2 (stereo not shown) [19-4]
100 to 500,< 100,CC1COc2cc(F)c(F)cc2N1C(=O)N1CC2(C1)CN(c1ccc(F)cn1)C2 (stereo not shown) [19-5]
100 to 500,< 100,CC1COc2cc(Cl)c(F)cc2N1C(=O)N1CC2(C1)CN(c1cccnc1)C2 (stereo not shown) [19-6]
100 to 500,< 100,"CC1COc2cc(Cl)ccc2N1C(=O)N1CC2(C1)CN(c1cccnc1)C2 (stereo not shown) [20-1, (7-chloro-3-methyl-2,3-dihydro-4H-benzo[b][1,4]oxazin-4-yl)(6-(pyridin-3-yl)-2,6-diazaspiro[3.3]heptan-2-yl)methanone]"
100 to 500,< 100,Cc1cncc(N2CC3(CN(C(=O)N4c5ccc(F)cc5OCC4C)C3)C2)n1 (stereo not shown) [20-2]
< 100,< 100,CC1COc2cc(Cl)ccc2N1C(=O)N1CC2(C1)CN(c1cc(C#N)ccn1)C2 (stereo not shown) [20-6]
100 to 500,< 100,Cc1nc(N2CC3(CN(C(=O)N4c5ccc(Cl)cc5OCC4C)C3)C2)ncc1F (stereo not shown) [20-7]
100 to 500,< 100,COc1ccnc(N2CC3(CN(C(=O)N4c5ccc(Cl)cc5OCC4C)C3)C2)c1 (stereo not shown) [20-8]
100 to 500,< 100,COc1ccnc(N2CC3(CN(C(=O)N4c5ccc(Cl)cc5OCC4C)C3)C2)n1 (stereo not shown) [20-9]
100 to 500,< 100,Cc1nccnc1N1CC2(CN(C(=O)N3c4ccc(Cl)cc4OCC3C)C2)C1 (stereo not shown) [20-10]
100 to 500,< 100,Cc1ccnc(N2CC3(CN(C(=O)N4c5ccc(Cl)cc5OCC4C)C3)C2)c1 (stereo not shown) [20-11]
100 to 500,< 100,Cc1ccnc(N2CC3(CN(C(=O)N4c5ccc(Cl)cc5OCC4C)C3)C2)n1 (stereo not shown) [20-12]
